Measured values published in ChEMBL document CHEMBL4334430, “A cell-based screening system for RNA polymerase I inhibitors” (Medchemcomm, 2019).
Calls of active or inactive are those of the source. The calls are words filed in the database; no cut-off is given here.

Tests used:
Saccharomyces cerevisiae [1] = test: Inhibition of yeast RNA polymerase 1 in YBR140C cells expressing human RNA polymerase 1 promoter and rRNA assessed as reduction in cell growth at 126 to 2500 nM by UV-spectrophotometric analysis; format: cell-based
Saccharomyces cerevisiae [2] = test: Inhibition of yeast RNA polymerase 1 in YBR140C cells expressing human RNA polymerase 1 promoter and rRNA assessed as reduction in human rDNA transcription at 312 to 2500 nM by qRT-PCR analysis; format: cell-based
A2780 = test: Antiproliferative activity against human A2780 cells incubated for 4 days by MTT assay; format: functional, cell-based; settings: A2780, 96 h
Saccharomyces cerevisiae [3] = test: Inhibition of yeast RNA polymerase 1 in YBR140C cells expressing human RNA polymerase 1 promoter and rRNA assessed as reduction in human rDNA transcription at 390 to 3120 nM by qRT-PCR analysis; format: cell-based
NCI-H460 = test: Antiproliferative activity against human H460 cells incubated for 4 days by MTT assay; format: functional, cell-based; settings: NCI-H460, 96 h
Saccharomyces cerevisiae [4] = test: Inhibition of yeast RNA polymerase 1 in YBR140C cells expressing human RNA polymerase 1 promoter and rRNA assessed as reduction in cell growth at 390 to 1560 nM by UV-spectrophotometric analysis; format: cell-based

SMILES	inhibition (Saccharomyces cerevisiae [1])	inhibition (Saccharomyces cerevisiae [2])	IC50 (A2780)	inhibition (Saccharomyces cerevisiae [3])	IC50 (NCI-H460)	inhibition (Saccharomyces cerevisiae [4])
Cc1cnc(CNC(=O)c2c(=O)c3ccc(N4CCCN(C)CC4)nc3n3c2sc2ccccc23)cn1 [CX-5461]	Active	Active	120 nM			
COCc1c(C(C)C)nc(C(C)C)c(/C=C/[C@@H](O)C[C@@H](O)CC(=O)O)c1-c1ccc(F)cc1 [CERIVASTATIN SODIUM]			700 nM	Active	3500 nM	Active
